Data taken from ChEMBL document CHEMBL1201862, “PubChem BioAssay data set” (2004).
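The compound was tested at five concentrations on cells cultured in 96-well plates, with a 48-hour exposure period. At the GI50, growth is halved.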 Calls of active or inactive are those of the source. Cut-off read from the data, not from the text of the source: active = GI50 up to about 1.1 µM and inactive = higher.

Legend:
Assay in all cases: NCI tumour cell line growth inhibition, 48 h
KM12 = system: KM12
A549 = system: A549
RXF 393 = system: RXF 393
SK-OV-3 = system: SK-OV-3
Malme-3M = system: Malme-3M
LOX IMVI = system: LOX IMVI
BT-549 = system: BT-549
UACC-257 = system: UACC-257
RPMI-8226 = system: RPMI-8226
SK-MEL-2 = system: SK-MEL-2
SK-MEL-28 = system: SK-MEL-28
U-251 = system: U-251
HT-29 = system: HT-29
CCRF-CEM = system: CCRF-CEM
IGROV-1 = system: IGROV-1
HCT-15 = system: HCT-15
786-0 = system: 786-0
HOP-92 = system: HOP-92
EKVX = system: EKVX
OVCAR-8 = system: OVCAR-8
NCI-H522 = system: NCI-H522
NCI-H23 = system: NCI-H23
K562 = system: K562
DU-145 = system: DU-145
CAKI-1 = system: CAKI-1
TK-10 = system: TK-10
MDA-N = system: MDA-N
Hs-578T = system: Hs-578T
SNB-75 = system: SNB-75
HL-60 = system: HL-60
NCI-H460 = system: NCI-H460
NCI/ADR-RES = system: NCI/ADR-RES
HCC 2998 = system: HCC 2998
SF-539 = system: SF-539
MDA-MB-435 = system: MDA-MB-435
NCI-H226 = system: NCI-H226
SNB-19 = system: SNB-19
SW-620 = system: SW-620
OVCAR-5 = system: OVCAR-5
MOLT-4 = system: MOLT-4
T47D = system: T47D
MCF7 = system: MCF7
A498 = system: A498
MDA-MB-231 = system: MDA-MB-231
SR = system: SR
HOP-62 = system: HOP-62
SN12C = system: SN12C
HCT-116 = system: HCT-116
PC-3 = system: PC-3
UO-31 = system: UO-31
OVCAR-3 = system: OVCAR-3
M14 = system: M14
ACHN = system: ACHN
SK-MEL-5 = system: SK-MEL-5
COLO 205 = system: COLO 205
UACC-62 = system: UACC-62
OVCAR-4 = system: OVCAR-4
SF-268 = system: SF-268
SF-295 = system: SF-295

## COc1ccc(NC(=S)N/N=C2\C(=O)Nc3ccccc32)cc1
KM12
  GI50: 13 µM (inactive)
A549
  GI50: 5.52 µM (inactive)
RXF 393
  GI50: 9.27 µM (inactive)
SK-OV-3
  GI50: 20.8 µM (inactive)
Malme-3M
  GI50: 12.9 µM (inactive)
LOX IMVI
  GI50: 2.92 µM (inactive)
BT-549
  GI50: 4.74 µM (inactive)
UACC-257
  GI50: 47 µM (inactive)
RPMI-8226
  GI50: 31.4 µM (inactive)
SK-MEL-2
  GI50: 40.1 µM (inactive)
SK-MEL-28
  GI50: 43.1 µM (inactive)
U-251
  GI50: 5.22 µM (inactive)
HT-29
  GI50: 7.96 µM (inactive)
CCRF-CEM
  GI50: 2.43 µM (inactive)
IGROV-1
  GI50: 4.83 µM (inactive)
HCT-15
  GI50: 0.984 µM
786-0
  GI50: 7.55 µM (inactive)
HOP-92
  GI50: 44 µM (inactive)
EKVX
  GI50: 9.14 µM (inactive)
OVCAR-8
  GI50: 7.55 µM (inactive)
NCI-H522
  GI50: 18.7 µM (inactive)
NCI-H23
  GI50: 14.7 µM (inactive)
K562
  GI50: 5.69 µM (inactive)
DU-145
  GI50: 13.6 µM (inactive)
CAKI-1
  GI50: 5.11 µM (inactive)
TK-10
  GI50: 22 µM (inactive)
MDA-N
  GI50: 55.6 µM (inactive)
Hs-578T
  GI50: 29.2 µM (inactive)
SNB-75
  GI50: 48 µM (inactive)
HL-60
  GI50: 2.49 µM (inactive)
NCI-H460
  GI50: 3.13 µM (inactive)
NCI/ADR-RES
  GI50: 2.07 µM (inactive)
HCC 2998
  GI50: 27.2 µM (inactive)
SF-539
  GI50: 6.41 µM (inactive)
MDA-MB-435
  GI50: 52.2 µM (inactive)
NCI-H226
  GI50: 8.97 µM (inactive)
SNB-19
  GI50: 41.7 µM (inactive)
SW-620
  GI50: 6.28 µM (inactive)
OVCAR-5
  GI50: 65 µM (inactive)
MOLT-4
  GI50: 4.93 µM (inactive)
T47D
  GI50: 7.98 µM (inactive)
MCF7
  GI50: 9.48 µM (inactive)
A498
  GI50: 40.6 µM (inactive)
MDA-MB-231
  GI50: 30.9 µM (inactive)
SR
  GI50: 8.51 µM (inactive)
HOP-62
  GI50: 12.2 µM (inactive)
SN12C
  GI50: 40.4 µM (inactive)
HCT-116
  GI50: 5.14 µM (inactive)
PC-3
  GI50: 19.2 µM (inactive)
UO-31
  GI50: 5.18 µM (inactive)
OVCAR-3
  GI50: 28.8 µM (inactive)
M14
  GI50: 21.9 µM (inactive)
ACHN
  GI50: 6.5 µM (inactive)
SK-MEL-5
  GI50: 9.27 µM (inactive)
COLO 205
  GI50: 6.52 µM (inactive)
UACC-62
  GI50: 6.24 µM (inactive)
OVCAR-4
  GI50: 9.77 µM (inactive)
SF-268
  GI50: 17.5 µM (inactive)
SF-295
  GI50: 3.47 µM (inactive)

## C=C1C(=O)O[C@H]2C3C(=C(C)CC[C@@H]12)C(=O)[C@@H]1OC31C (stereo partly drawn)
KM12
  GI50: 5.73 µM (inactive)
A549
  GI50: 13 µM (inactive)
RXF 393
  GI50: 1.56 µM (inactive)
SK-OV-3
  GI50: 15.4 µM (inactive)
Malme-3M
  GI50: 2.2 µM (inactive)
LOX IMVI
  GI50: 2.11 µM (inactive)
BT-549
  GI50: 1.95 µM (inactive)
UACC-257
  GI50: 2.24 µM (inactive)
RPMI-8226
  GI50: 0.746 µM (active)
SK-MEL-2
  GI50: 4.48 µM (inactive)
SK-MEL-28
  GI50: 2.34 µM (inactive)
U-251
  GI50: 13.4 µM (inactive)
HT-29
  GI50: 1.66 µM (inactive)
CCRF-CEM
  GI50: 0.318 µM (active)
IGROV-1
  GI50: 5.45 µM (inactive)
HCT-15
  GI50: 1.66 µM
786-0
  GI50: 1.86 µM (inactive)
HOP-92
  GI50: 2.93 µM (inactive)
EKVX
  GI50: 14.4 µM (inactive)
OVCAR-8
  GI50: 2.18 µM (inactive)
NCI-H522
  GI50: 1.53 µM (inactive)
NCI-H23
  GI50: 2.21 µM (inactive)
K562
  GI50: 0.698 µM (active)
DU-145
  GI50: 12.5 µM (inactive)
CAKI-1
  GI50: 2.67 µM (inactive)
TK-10
  GI50: 2.27 µM (inactive)
MDA-N
  GI50: 1.75 µM (inactive)
Hs-578T
  GI50: 3.03 µM (inactive)
SNB-75
  GI50: 2.38 µM (inactive)
HL-60
  GI50: 0.23 µM (active)
NCI-H460
  GI50: 10.1 µM (inactive)
NCI/ADR-RES
  GI50: 3.13 µM (inactive)
HCC 2998
  GI50: 14.7 µM (inactive)
SF-539
  GI50: 2.43 µM (inactive)
MDA-MB-435
  GI50: 2.72 µM (inactive)
NCI-H226
  GI50: 7.48 µM (inactive)
SNB-19
  GI50: 15.8 µM (inactive)
SW-620
  GI50: 0.685 µM (active)
OVCAR-5
  GI50: 10.4 µM (inactive)
MOLT-4
  GI50: 1.36 µM (inactive)
T47D
  GI50: 1.81 µM (inactive)
MCF7
  GI50: 1.8 µM (inactive)
A498
  GI50: 11.4 µM (inactive)
MDA-MB-231
  GI50: 3.94 µM (inactive)
SR
  GI50: 0.622 µM (active)
HOP-62
  GI50: 14.8 µM (inactive)
SN12C
  GI50: 1.63 µM (inactive)
HCT-116
  GI50: 1.11 µM (active)
PC-3
  GI50: 2.69 µM (inactive)
UO-31
  GI50: 4.89 µM (inactive)
OVCAR-3
  GI50: 2 µM (inactive)
M14
  GI50: 1.68 µM (inactive)
ACHN
  GI50: 2.6 µM (inactive)
SK-MEL-5
  GI50: 1.59 µM (inactive)
COLO 205
  GI50: 1.2 µM (inactive)
UACC-62
  GI50: 2.04 µM (inactive)
OVCAR-4
  GI50: 1.58 µM (inactive)
SF-268
  GI50: 5.19 µM (inactive)
SF-295
  GI50: 14 µM (inactive)
